Source: patent US11312715B2, “Fused ring derivative as A2A receptor inhibitor” (CSTONE PHARMACEUTICALS (SUZHOU) CO., LTD., priority 2017, dated 2022)
Where a name gives a salt, the structure may show the parent alone. Read-outs that look alike come from different tables or passages of the source.

Legend:
[1] = system: mouse colon cancer CT26 cells; test: In vivo pharmacodynamic test, CT26 subcutaneous tumor model, alone or combined with CS1003; parameters: species or system BALB/C mice; details: for tumor inhibition rate: day 20
Protocol: Experimental materials: BALB/C mice (female); mouse colon cancer CT26 cells (Typical Culture Preservation Commission cell bank, Chinese Academy of Sciences) were cultured in vitro in monolayer with RPMI-1640 medium containing 10% fetal bovine serum in a 37° C., 5% CO2 incubator. Trypsin-EDTA was used for routine digestion and passage. When the cells were in exponential growth phase and the saturation was 80%-90%, the cells were collected and counted.
Compound preparation: Embodiment 19 was weighted and added into the menstruum (10% PEG400+90% (10% Cremophor aqueous solution)) to prepare samples of 2.5 mg/mL, 5 mg/mL and 10 mg/mL respectively. 72 μL CS1003 (PD-1 antibody) solution (25 mg/mL) was taken and 1.728 mL Dulbecco's phosphate buffer (DPBS) was added to prepare a 1 mg/mL solution, then 16.2 mL DPBS was added to prepare a 0.1 mg/mL clear solution.
Experimental operation: the cells were resuspended in Dulbecco's phosphate buffer at a density of 3×10^6 cells/mL. 0.1 mL DPBS (containing 3×10^5 CT26 cells) was subcutaneously inoculated on the right back of each mouse. On the day of inoculation, the mice were randomly divided into groups with 9 mice each group according to the weight of the mice, then administration was started and continued for 20 days. During the whole experiment, the animals were weighed and the animal's health was monitored every day, in case of any special situation, the person in charge of the relevant project would be informed in time and the corresponding records would be made. Tumor diameter was measured twice a week with a vernier caliper. The calculation formula of the tumor volume was: V=0.5×a×b^2, wherein a and b represent the long and short diameters of the tumor respectively.
The antitumor effect of the compounds was evaluated by GI (%) or relative tumor proliferation rate T/C (%). Relative tumor proliferation rate T/C (%)=Vt/VC×100% (Vt: average tumor volume of treatment group; Vc: average tumor volume of negative control group). Vt and VC were the data on the same day. GI (%), tumor inhibition rate. GI (%)=1−Vt/VC×100%.
Statistical analysis was conducted using SPSS software based on the relative tumor volume and tumor weight at the end of the experiment. […] P<0.05 was considered as significant difference.

[2] = PK test of in vivo efficacy: plasma and tumor tissue drug concentration on day 20 of the CT26 study; parameters: species or system BALB/C mice; details: mouse; for concentration at 1 h / concentration at 4 h / Kp at 4 h / Kp at 1 h: oral; for concentration at 1 h / Kp at 1 h: time point 1 h; for concentration at 1 h / concentration at 4 h: tumor tissue; for concentration at 4 h / Kp at 4 h: time point 4 h; for AUC(0-t) / Cmax / Tmax / half-life: plasma, po, day 20; for half-life: read-out: T½ (converted); for Kp at 4 h / Kp at 1 h: tumor tissue / plasma, read-out: T/P* Ratio (tumor tissue / plasma drug concentration)
Protocol: The experiment was conducted on the basis of experimental example 3, on the 20th day after administration, blood samples and tissues were collected from each group at different time points (0 h, 0.25 h, 0.5 h, 1 h, 2 h, 4 h, 8 h and 24 h) after administration.

[3] = BALB/C, 50 mg/kg, Group 7, 50 mpk twice a day alone
[4] = BALB/C, 100 mg/kg, Group 3, 100 mpk alone
[5] = BALB/C, 25 mg/kg, Group 4: 25 mg/kg once a day PO + CS1003 1 mg/kg
[6] = BALB/C, 50 mg/kg, Group 5: 50 mg/kg once a day PO + CS1003 1 mg/kg
[7] = BALB/C, 50 mg/kg, Group 7: 50 mg/kg twice a day PO alone
[8] = BALB/C, 50 mg/kg, Group 8: 50 mg/kg twice a day PO + CS1003 1 mg/kg
[9] = BALB/C, 100 mg/kg, Group 3: 100 mg/kg once a day PO alone
[10] = BALB/C, 100 mg/kg, Group 6: 100 mg/kg once a day PO + CS1003 1 mg/kg
[11] = BALB/c, 50 mpk, Group 5, 50 mpk once a day + CS1003
[12] = BALB/c, 100 mpk, Group 3, 100 mpk alone
[13] = BALB/c, 100 mpk, Group 6, 100 mpk + CS1003

## Nc1nc(-c2ccc(F)cc2)c(-c2ccc3ncnn3c2)c2nccnc12 [Embodiment 6 hydrochloride]
[1]; 25 mg/kg once a day combined with 1 mg/kg CS1003, p<0.001
  tumor inhibition rate: 63.16%
[1]; 25 mg/kg once a day intragastric combined with 1 mg/kg CS1003, end of experiment (day 20)
  tumor volume: 312.06+80.17 mm^3
[1]; 50 mg/kg once a day combined with 1 mg/kg CS1003, p<0.001
  tumor inhibition rate: 70.90%
[1]; 50 mg/kg once a day intragastric combined with 1 mg/kg CS1003, end of experiment (day 20)
  tumor volume: 246.48+62.57 mm^3
[1]; 50 mg/kg twice a day in combination with CS1003, P<0.001
  tumor inhibition rate: 83.22%
[1]; 50 mg/kg twice a day intragastric in combination with CS1003, end of experiment (day 20)
  average tumor volume: 142.17+40.30 mm^3
[1]; 100 mg/kg once a day combined with 1 mg/kg CS1003, p<0.001
  tumor inhibition rate: 72.48%
[1]; 100 mg/kg once a day intragastric combined with 1 mg/kg CS1003, end of experiment (day 20)
  tumor volume: 233.10+59.55 mm^3
[2]; [3]
  concentration at 1 h: 3.69 µM
  concentration at 4 h: 0.901 µM
  Kp at 4 h: 9.8
[2]; [4]
  concentration at 1 h: 17.5 µM
  concentration at 4 h: 10.6 µM
[2]; [5]
  AUC(0-t): 23.5 µM·h
  Cmax: 32.2 µM
  Tmax: 30 min
  half-life: 65.4 min
[2]; [6]
  AUC(0-t): 70.6 µM·h
  Cmax: 57.2 µM
  Tmax: 15 min
  half-life: 63 min
[2]; [7]
  AUC(0-t): 42 µM·h
  Cmax: 30.1 µM
  Tmax: 30 min
[2]; [8]
  AUC(0-t): 77.9 µM·h
  Cmax: 47.1 µM
  Tmax: 30 min
  half-life: 95.4 min
[2]; [9]
  AUC(0-t): 145 µM·h
  Cmax: 114 µM
  Tmax: 15 min
  half-life: 48.6 min
[2]; [10]
  AUC(0-t): 125 µM·h
  Cmax: 132 µM
  Tmax: 15 min
  half-life: 39.3 min
[2]; BALB/c, 25 mpk, Group 4, 25 mpk + CS1003
  Kp at 4 h: 0.9
[2]; [11]
  Kp at 1 h: 0.4
  Kp at 4 h: 1.8
[2]; BALB/c, 50 mpk, Group 7, 50 mpk twice a day alone
  Kp at 1 h: 0.7
[2]; BALB/c, 50 mpk, Group 8, 50 mpk twice a day + CS1003
  Kp at 4 h: 36
[2]; [12]
  Kp at 1 h: 0.6
  Kp at 4 h: 0.9
[2]; [13]
  Kp at 1 h: 0.5
  Kp at 4 h: 4.2
